# Columns and labels:
# Type in all cases: cell-based
# SW-620 = assay: SRB growth assay, 6 days exposure, colon cancer; conditions: SW-620, 6 days
# Procedure: (§1) Arsenic trioxide (1 mg/ml, 10 mg/ampoule, manufactured by Taylor Pharmaceuticals, Decatur, Ill.) was tested at five concentrations each at 10-fold dilutions, i.e., 10^−5, 10^−6, 10^−7, 10^−8 and 10^−9 μg/ml.
# (§2) The in vitro tests were performed by incubating the test cells in the presence of the indicated concentration of arsenic trioxide under standard culture conditions for a designated period of time, which is followed by a sulforhodamine B (SRB) protein assay to estimate cell viability or growth. The cell lines are organized into subpanels according to the origin of the cell lines, e.g., leukemia, breast cancer, etc. A description of the cell lines and method of testing is described in Monk et al. (1997, Anticancer Drug Des. 12:533-41) and Weinstein et al., (1997, Science 275:343-9), which are incorporated herein in their entirety.
# (§3) The measurement of an effect is expressed in Percentage Growth (PG). The measured effect of the compound on a cell line is calculated according to one or the other of the following two expressions: If (Mean ODtest−Mean ODzero)≧0. then PG=100×(Mean ODtest−Mean ODzero)/(Mean ODctrl−Mean ODzero) If (Mean ODtest−Mean ODzero)<0. then PG=100×(Mean ODtest−Mean ODzero)/(Mean ODzero where: • Mean ODzero=the average of optical density measurements of SRB-derived color just before exposure of cells to the test compounds; • Mean ODtest=the average of optical density measurements of SRB-derived color after exposure of cells to the test compound for a designated period of time; and • Mean ODctrl=the average of optical density measurements of SRB-derived color after with no exposure of cells to the test compound for a designated period of time
# (§4) The first two columns describe the subpanel (e.g., leukemia) and cell line (e.g., CCRF-CEM) involved. The next two columns list the Mean ODzero and Mean ODctrl; the next five columns list the Mean ODtest for each of five different concentrations. Each concentration is expressed as the log10 (molar or μg/ml). The next five columns list the calculated PGs for each concentration. The response parameters GI50, TGI and LC50 are interpolated values representing the concentrations at which the PG is +50, 0, and −50, respectively. Sometimes these response parameters cannot be obtained by interpolation. If, for instance, all of the PGs in a given row exceed +50, then none of the three parameters can be obtained by interpolation. In such a case, the value given for each response parameter is the highest concentration tested and is preceded by a “>” sign. This practice is extended similarly to the other possible situations where a response parameter cannot be obtained by interpolation.
# (§5) In the first set, the cells from 56 different cancer cell lines were exposed to five concentrations of arsenic trioxide continuously for two days prior to performing the SRB assay. In the second set, the cells from 50 different cell lines (a subset of the first 56 cell lines, plus the renal cancer cell line 786-0) were exposed continuously for six days prior to the SRB assay.
# KM12 = assay: SRB growth assay, 6 days exposure, colon cancer; conditions: KM12, 6 days
# Procedure: as §1, §2, §3, §4, §5
# COLO 205 = assay: SRB growth assay, 6 days exposure, colon cancer; conditions: COLO 205, 6 days
# Procedure: as §1, §2, §3, §4, §5
# IGROVI = assay: SRB growth assay, 6 days exposure, ovarian cancer; conditions: IGROV1, 6 days
# Procedure: as §1, §2, §3, §4, §5
# SK-OV-3 = assay: SRB growth assay, 6 days exposure, ovarian cancer; conditions: SK-OV-3, 6 days
# Procedure: as §1, §2, §3, §4, §5
# OVCAR-3 = assay: SRB growth assay, 6 days exposure, ovarian cancer; conditions: OVCAR-3, 6 days
# Procedure: as §1, §2, §3, §4, §5
# OVCAR-8 = assay: SRB growth assay, 6 days exposure, ovarian cancer; conditions: OVCAR-8, 6 days
# Procedure: as §1, §2, §3, §4, §5
# OVCAR-5 = assay: SRB growth assay, 6 days exposure, ovarian cancer; conditions: OVCAR-5, 6 days
# Procedure: as §1, §2, §3, §4, §5
# [1] = read-out: LC50 (the source's name)
substance,measurement,setting,value
arsenic trioxide,TGI,SW-620,3.43E−06
same,Mean Optical Densities,SW-620; Log 10 Concentration −4.9,0.007
same,Percent Growth,SW-620; Log 10 Concentration −4.9,−72%
same,Mean Optical Densities,SW-620; Log 10 Concentration −5.9,1.475
same,Percent Growth,SW-620; Log 10 Concentration −5.9,55%
same,Mean Optical Densities,SW-620; Log 10 Concentration −6.9,2.337
same,Percent Growth,SW-620; Log 10 Concentration −6.9,88%
same,Mean Optical Densities,SW-620; Log 10 Concentration −7.9,2.308
same,Percent Growth,SW-620; Log 10 Concentration −7.9,87%
same,Mean Optical Densities,SW-620; Log 10 Concentration −8.9,2.613
same,Percent Growth,SW-620; Log 10 Concentration −8.9,99%
same,TGI,KM12,>1.26E−05
same,Mean Optical Densities,KM12; Log 10 Concentration −4.9,0.017
same,Percent Growth,KM12; Log 10 Concentration −4.9,1%
same,Mean Optical Densities,KM12; Log 10 Concentration −5.9,0.036
same,Percent Growth,KM12; Log 10 Concentration −5.9,4%
same,Mean Optical Densities,KM12; Log 10 Concentration −6.9,0.507
same,Percent Growth,KM12; Log 10 Concentration −6.9,83%
same,Mean Optical Densities,KM12; Log 10 Concentration −7.9,0.533
same,Percent Growth,KM12; Log 10 Concentration −7.9,87%
same,Mean Optical Densities,KM12; Log 10 Concentration −8.9,0.487
same,Percent Growth,KM12; Log 10 Concentration −8.9,80%
same,CC50,KM12; [1],> 12.6 µM
same,TGI,COLO 205,>1.26E−05
same,Mean Optical Densities,COLO 205; Log 10 Concentration −4.9,0.024
same,Percent Growth,COLO 205; Log 10 Concentration −4.9,0%
same,Mean Optical Densities,COLO 205; Log 10 Concentration −5.9,1.404
same,Percent Growth,COLO 205; Log 10 Concentration −5.9,59%
same,Mean Optical Densities,COLO 205; Log 10 Concentration −6.9,2.283
same,Percent Growth,COLO 205; Log 10 Concentration −6.9,97%
same,Mean Optical Densities,COLO 205; Log 10 Concentration −7.9,2.026
same,Percent Growth,COLO 205; Log 10 Concentration −7.9,86%
same,Mean Optical Densities,COLO 205; Log 10 Concentration −8.9,2.308
same,Percent Growth,COLO 205; Log 10 Concentration −8.9,98%
same,CC50,COLO 205; [1],> 12.6 µM
same,TGI,IGROVI,6.62E−06
same,Mean Optical Densities,IGROVI; Log 10 Concentration −4.9,0.216
same,Percent Growth,IGROVI; Log 10 Concentration −4.9,−36%
same,Mean Optical Densities,IGROVI; Log 10 Concentration −5.9,2.877
same,Percent Growth,IGROVI; Log 10 Concentration −5.9,91%
same,Mean Optical Densities,IGROVI; Log 10 Concentration −6.9,3.204
same,Percent Growth,IGROVI; Log 10 Concentration −6.9,103%
same,Mean Optical Densities,IGROVI; Log 10 Concentration −7.9,3.056
same,Percent Growth,IGROVI; Log 10 Concentration −7.9,98%
same,Mean Optical Densities,IGROVI; Log 10 Concentration −8.9,3.541
same,Percent Growth,IGROVI; Log 10 Concentration −8.9,115%
same,CC50,IGROVI; [1],> 12.6 µM
same,TGI,SK-OV-3,5.27E−06
same,Mean Optical Densities,SK-OV-3; Log 10 Concentration −4.9,0.020
same,Percent Growth,SK-OV-3; Log 10 Concentration −4.9,−51%
same,Mean Optical Densities,SK-OV-3; Log 10 Concentration −5.9,1.247
same,Percent Growth,SK-OV-3; Log 10 Concentration −5.9,84%
same,Mean Optical Densities,SK-OV-3; Log 10 Concentration −6.9,1.461
same,Percent Growth,SK-OV-3; Log 10 Concentration −6.9,99%
same,Mean Optical Densities,SK-OV-3; Log 10 Concentration −7.9,1.410
same,Percent Growth,SK-OV-3; Log 10 Concentration −7.9,96%
same,Mean Optical Densities,SK-OV-3; Log 10 Concentration −8.9,1.445
same,Percent Growth,SK-OV-3; Log 10 Concentration −8.9,98%
same,TGI,OVCAR-3,2.36E−06
same,Mean Optical Densities,OVCAR-3; Log 10 Concentration −4.9,0.001
same,Percent Growth,OVCAR-3; Log 10 Concentration −4.9,−99%
same,Mean Optical Densities,OVCAR-3; Log 10 Concentration −5.9,0.482
same,Percent Growth,OVCAR-3; Log 10 Concentration −5.9,37%
same,Mean Optical Densities,OVCAR-3; Log 10 Concentration −6.9,1.124
same,Percent Growth,OVCAR-3; Log 10 Concentration −6.9,97%
same,Mean Optical Densities,OVCAR-3; Log 10 Concentration −7.9,1.128
same,Percent Growth,OVCAR-3; Log 10 Concentration −7.9,98%
same,Mean Optical Densities,OVCAR-3; Log 10 Concentration −8.9,1.047
same,Percent Growth,OVCAR-3; Log 10 Concentration −8.9,90%
same,TGI,OVCAR-8,3.21E−06
same,Mean Optical Densities,OVCAR-8; Log 10 Concentration −4.9,−0.001
same,Percent Growth,OVCAR-8; Log 10 Concentration −4.9,−100%
same,Mean Optical Densities,OVCAR-8; Log 10 Concentration −5.9,1.437
same,Percent Growth,OVCAR-8; Log 10 Concentration −5.9,68%
same,Mean Optical Densities,OVCAR-8; Log 10 Concentration −6.9,2.242
same,Percent Growth,OVCAR-8; Log 10 Concentration −6.9,107%
same,Mean Optical Densities,OVCAR-8; Log 10 Concentration −7.9,1.848
same,Percent Growth,OVCAR-8; Log 10 Concentration −7.9,88%
same,Mean Optical Densities,OVCAR-8; Log 10 Concentration −8.9,2.272
same,Percent Growth,OVCAR-8; Log 10 Concentration −8.9,109%
same,TGI,OVCAR-5,7.53E−06
same,Mean Optical Densities,OVCAR-5; Log 10 Concentration −4.9,0.028
same,Percent Growth,OVCAR-5; Log 10 Concentration −4.9,−26%
same,Mean Optical Densities,OVCAR-5; Log 10 Concentration −5.9,1.287
same,Percent Growth,OVCAR-5; Log 10 Concentration −5.9,91%
same,Mean Optical Densities,OVCAR-5; Log 10 Concentration −6.9,1.478
same,Percent Growth,OVCAR-5; Log 10 Concentration −6.9,105%
same,Mean Optical Densities,OVCAR-5; Log 10 Concentration −7.9,1.460
same,Percent Growth,OVCAR-5; Log 10 Concentration −7.9,104%
same,Mean Optical Densities,OVCAR-5; Log 10 Concentration −8.9,1.433
same,Percent Growth,OVCAR-5; Log 10 Concentration −8.9,102%
same,CC50,OVCAR-5; [1],> 12.6 µM
